Assay results taken from patent US10206937B2, “Boronic acid derivatives and therapeutic uses thereof” (Qpex Biopharma, Inc., priority 2014, dated 2019).

Tested on: strains of Enterobacteriaceae producing various carbapenemases (class A, D and B; 169 strains)
Experiment: Meropenem or tebipenem potentiation by Compounds 97 or 62 (MIC)
Format: cell-based
Procedure: The largest panel of clinical isolates expressing class A, D and B carbapenemases alone or in combination with other beta-lactamases (169 strains) was used to evaluate carbapenem potentiation activity of Compounds 97 and 62. MIC for meropenem and tebipenem of these strains were determined either alone or in the presence of Compounds 97 or 62, respectively, at a fixed concentration of 8 μg/ml in the growth media.

C[C@@H](O)[C@H]1C(=O)N2C(C(=O)O)=C(SC3CN(C4=NCCS4)C3)[C@H](C)[C@H]12 [T]
Tebipenem MIC alone (T) (KP1182 Klebsiella pneumoniae SHV-OSBL(2b), NDM-1, OXA-232(c)): Z (MIC of greater than 10 μg/mL) | Tebipenem MIC alone (T) (KP1183 Klebsiella pneumoniae SHV-OSBL(2b), TEM-OSBL(2b), CTX-M-15, NDM-1): Z (MIC of greater than 10 μg/mL) | Tebipenem MIC alone (T) (KP1184 Klebsiella pneumoniae SHV-OSBL(2b), IMP-1): Y (MIC of 1 μg/mL to 10 μg/mL) | Tebipenem MIC alone (T) (KP1185 Klebsiella pneumoniae SHV-OSBL(2b), TEM-OSBL(2b), IMP-4): Z (MIC of greater than 10 μg/mL) | Tebipenem MIC alone (T) (KP1186 Klebsiella pneumoniae CTX-M-15, NDM-1): Z (MIC of greater than 10 μg/mL) | Tebipenem MIC alone (T) (KP1187 Klebsiella pneumoniae SHV-55(2be), TEM-OSBL(2b), CTX-M-15, NDM-1): Z (MIC of greater than 10 μg/mL) | Tebipenem MIC alone (T) (KP1188 Klebsiella pneumoniae SHV-OSBL(2b), CTX-M-15, NDM-1): Z (MIC of greater than 10 μg/mL) | Tebipenem MIC alone (T) (KP1189 Klebsiella pneumoniae TEM-OSBL(2b), CTX-M-15, CTX-M-27, NDM-1): Z (MIC of greater than 10 μg/mL) | Tebipenem MIC alone (T) (KP1190 Klebsiella pneumoniae KPC-4 VIM-4 TEM SHV): Z (MIC of greater than 10 μg/mL) | Tebipenem MIC alone (T) (KP1191 Klebsiella pneumoniae KPC-2): Z (MIC of greater than 10 μg/mL) | Tebipenem MIC alone (T) (KP1192 Klebsiella pneumoniae KPC-2 TEM SHV): Z (MIC of greater than 10 μg/mL) | Tebipenem MIC alone (T) (KP1193 Klebsiella pneumoniae KPC-3 TEM SHV): Z (MIC of greater than 10 μg/mL) | Tebipenem MIC alone (T) (KP1194 Klebsiella pneumoniae KPC TEM SHV): Z (MIC of greater than 10 μg/mL) | Tebipenem MIC alone (T) (KP1195 Klebsiella pneumoniae KPC TEM CTX-M-15): Z (MIC of greater than 10 μg/mL) | Tebipenem MIC alone (T) (KP1196 Klebsiella pneumoniae KPC TEM SHV CTX-M-15 CMY): Z (MIC of greater than 10 μg/mL) | Tebipenem MIC alone (T) (KP1197 Klebsiella pneumoniae KPC-3, VIM-1 TEM SHV): Z (MIC of greater than 10 μg/mL) | Tebipenem MIC alone (T) (KP1198 Klebsiella pneumoniae KPC-3, VIM-1 TEM SHV): Z (MIC of greater than 10 μg/mL) | Tebipenem MIC alone (T) (KP1199 Klebsiella pneumoniae KPC-3 TEM SHV): Z (MIC of greater than 10 μg/mL) | Tebipenem MIC alone (T) (KP1200 Klebsiella pneumoniae KPC-3 TEM SHV): Z (MIC of greater than 10 μg/mL) | Tebipenem MIC alone (T) (KP1210 Klebsiella pneumoniae KPC SHV TEM): Z (MIC of greater than 10 μg/mL) | Tebipenem MIC alone (T) (KP1211 Klebsiella pneumoniae KPC SHV TEM CTX-M-15): Z (MIC of greater than 10 μg/mL) | Tebipenem MIC alone (T) (KP1212 Klebsiella pneumoniae KPC SHV TEM CTX-M-15): Z (MIC of greater than 10 μg/mL) | Tebipenem MIC alone (T) (KP1213 Klebsiella pneumoniae KPC SHV TEM CTX-M-15): Z (MIC of greater than 10 μg/mL) | Tebipenem MIC alone (T) (KP1214 Klebsiella pneumoniae KPC SHV TEM + 1.9 kb): Z (MIC of greater than 10 μg/mL) | Tebipenem MIC alone (T) (KP1215 Klebsiella pneumoniae KPC SHV): Z (MIC of greater than 10 μg/mL) | Tebipenem MIC alone (T) (KP1216 Klebsiella pneumoniae KPC SHV TEM + 1.9 kb): Z (MIC of greater than 10 μg/mL) | Tebipenem MIC alone (T) (KP1217 Klebsiella pneumoniae KPC SHV TEM + 1.9 kb): Z (MIC of greater than 10 μg/mL) | Tebipenem MIC alone (T) (KP1218 Klebsiella pneumoniae KPC SHV TEM + 1.9 kb): Z (MIC of greater than 10 μg/mL) | Tebipenem MIC alone (T) (KP1219 Klebsiella pneumoniae KPC SHV TEM + 1.9 kb): Z (MIC of greater than 10 μg/mL) | Tebipenem MIC alone (T) (KP1220 Klebsiella pneumoniae KPC SHV TEM + 1.9 kb): Z (MIC of greater than 10 μg/mL) | Tebipenem MIC alone (T) (KP1221 Klebsiella pneumoniae KPC SHV TEM + 1.9 kb): Z (MIC of greater than 10 μg/mL) | Tebipenem MIC alone (T) (KP1222 Klebsiella pneumoniae KPC SHV TEM IMP): Z (MIC of greater than 10 μg/mL) | Tebipenem MIC alone (T) (KP1223 Klebsiella pneumoniae KPC SHV TEM): Z (MIC of greater than 10 μg/mL) | Tebipenem MIC alone (T) (KP1224 Klebsiella pneumoniae KPC SHV TEM): Z (MIC of greater than 10 μg/mL) | Tebipenem MIC alone (T) (KP1225 Klebsiella pneumoniae KPC SHV TEM + 1.9 kb CMY): Z (MIC of greater than 10 μg/mL) | Tebipenem MIC alone (T) (KP1226 Klebsiella pneumoniae KPC SHV TEM + 1.9 kb): Z (MIC of greater than 10 μg/mL) | Tebipenem MIC alone (T) (KP1227 Klebsiella pneumoniae KPC SHV TEM CTX-M-15): Z (MIC of greater than 10 μg/mL) | Tebipenem MIC alone (T) (KP1228 Klebsiella pneumoniae OXA-48 TEM SHV CTX-M-15): Y (MIC of 1 μg/mL to 10 μg/mL) | Tebipenem MIC alone (T) (KP1229 Klebsiella pneumoniae OXA-48 TEM SHV CTX-M-15): Z (MIC of greater than 10 μg/mL) | Tebipenem MIC alone (T) (KP1230 Klebsiella pneumoniae OXA-48 TEM SHV CTX-M-15): Y (MIC of 1 μg/mL to 10 μg/mL) | Tebipenem MIC alone (T) (KP1231 Klebsiella pneumoniae OXA-48 TEM SHV CTX-M-15): Y (MIC of 1 μg/mL to 10 μg/mL) | Tebipenem MIC alone (T) (KP1232 Klebsiella pneumoniae OXA-48 TEM SHV CTX-M-15): Z (MIC of greater than 10 μg/mL) | Tebipenem MIC alone (T) (KP1234 Klebsiella pneumoniae OXA-48 TEM SHV CTX-M-15): Z (MIC of greater than 10 μg/mL) | Tebipenem MIC alone (T) (KP1236 Klebsiella pneumoniae OXA-48 TEM SHV CTX-M-15): Z (MIC of greater than 10 μg/mL) | Tebipenem MIC alone (T) (PM1024 Proteus mirabilis TEM-1(2b), CMY-16, VIM-1): Z (MIC of greater than 10 μg/mL) | Tebipenem MIC alone (T) (PM1025 Proteus mirabilis SHV-5(2be), TEM-OSBL(2b), VEB-2, VIM-1): Y (MIC of 1 μg/mL to 10 μg/mL) | Tebipenem MIC alone (T) (PM1026 Proteus mirabilis DHA-1, IMP-26): Y (MIC of 1 μg/mL to 10 μg/mL) | Tebipenem MIC alone (T) (PM1027 Proteus mirabilis VIM-5): Z (MIC of greater than 10 μg/mL) | Tebipenem MIC alone (T) (SM1023 Serratia marcescens VIM-4): Z (MIC of greater than 10 μg/mL) | Tebipenem MIC alone (T) (SM1024 Serratia marcescens TEM-1(2b), IMP-47): Y (MIC of 1 μg/mL to 10 μg/mL)
